Experimental data taken from ChEMBL document CHEMBL6103571, “Design, synthesis, and evaluation of carboxylic acid-substituted celecoxib isosteres as potential anti-inflammatory agents” (Eur J Med Chem, 2025).
Active and inactive are the calls of the source. The rule behind the calls is not given here.

Tests used:
[1] = Cytotoxicity against mouse RAW264.7 cells incubated for 24 hrs by MTT assay; assay type: toxicity, cell-based
RAW264.7 [2] = assay: Anti-inflammatory activity against LPS-induced mouse RAW264.7 cells assessed as inhibition of NO production at 20 uM preincubated for 1 hrs followed by LPS addition and measured after 24 hrs by Griess reagent-based microplate reader analysis relative to control; assay type: functional; settings: time 25 hrs
[3] = target: T1, Prostaglandin G/H synthase 2 (Homo sapiens, UniProt P35354); assay: Inhibition of recombinant human COX-2 using arachidonic acid as substrate preincubated for 10 mins followed by substrate addition and measured after 2 mins by ELISA
T1 sequence (P35354 whole entry): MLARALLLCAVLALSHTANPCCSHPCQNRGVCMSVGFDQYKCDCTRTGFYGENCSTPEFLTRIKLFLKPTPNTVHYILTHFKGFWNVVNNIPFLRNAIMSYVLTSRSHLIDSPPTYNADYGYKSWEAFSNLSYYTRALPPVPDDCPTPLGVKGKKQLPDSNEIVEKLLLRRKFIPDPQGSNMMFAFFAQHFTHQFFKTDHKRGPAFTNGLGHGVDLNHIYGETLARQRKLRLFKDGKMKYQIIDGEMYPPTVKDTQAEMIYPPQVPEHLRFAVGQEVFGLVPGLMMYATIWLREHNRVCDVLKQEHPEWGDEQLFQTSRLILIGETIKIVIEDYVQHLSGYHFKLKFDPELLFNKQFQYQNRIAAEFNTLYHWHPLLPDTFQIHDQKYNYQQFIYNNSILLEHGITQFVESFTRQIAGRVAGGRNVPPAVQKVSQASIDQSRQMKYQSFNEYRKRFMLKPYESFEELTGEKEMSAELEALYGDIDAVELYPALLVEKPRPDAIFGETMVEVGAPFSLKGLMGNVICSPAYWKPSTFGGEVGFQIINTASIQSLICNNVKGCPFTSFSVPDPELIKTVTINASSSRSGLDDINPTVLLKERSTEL

Mus musculus [4] = assay: Anti-inflammatory activity in TPA-induced male Kunming mouse model of ear edema assessed as reduction in ear erythema pre-administered topically via ear for 30 mins followed by TPA addition and measured after 6 hrs; assay type: functional, organism-based; settings: dose 0.5-1 mg, route top, time 6.5 hrs
Mus musculus [5] = assay: Anti-inflammatory activity in TPA-induced male Kunming mouse model of ear edema assessed as reduction in ear thickness at 0.5 to 1.0 mg, TOP pre-administered via ear for 30 mins followed by TPA addition and measured after 6 hrs; assay type: functional, organism-based; settings: dose 0.5-1 mg, time 6.5 hrs
Mus musculus [6] = assay: Anti-inflammatory activity in TPA-induced male Kunming mouse model of ear edema assessed as reduction in ear weight at 0.5 to 1.0 mg, TOP pre-administered via ear for 30 mins followed by TPA addition and measured after 6 hrs; assay type: functional, organism-based; settings: dose 0.5-1 mg, time 6.5 hrs
RAW264.7 [7] = assay: Anti-inflammatory activity in LPS-induced mouse RAW264.7 cells assessed as reduction in PGE2 production preincubated for 1 hrs followed by LPS addition for 24 hrs by ELISA; assay type: functional, cell-based; settings: dose 12.5-50 µM, time 25.0 hrs
[8] = Selectivity index, ratio of IC50 for ovine COX-1 to IC50 for human COX-2
[9] = Toxicity in male Sprague-Dawley rat assessed as average number of ulcers at 100 mg/kg, po administrated for 3 days and measured after 2 hrs post last dose; assay type: organism-based; settings: in vivo, 74 h
Mus musculus [10] = assay: Anti-inflammatory activity against TPA-induced Kunming mouse ear edema model assessed as downregulation of COX-2 level in ear homogenate pre-administered topically via ear for 30 mins followed by TPA addition and measured after 6 hrs by Western blot analysis; assay type: functional, organism-based; settings: dose 0.5-1 mg, route top, time 6.5 hrs
RAW264.7 [11] = assay: Anti-inflammatory activity in LPS-induced mouse RAW264.7 cells assessed as downregulation of COX-2 expression at 12.5 to 50 uM preincubated for 1 hrs followed by LPS addition for 24 hrs by Western blotting analysis; assay type: functional, cell-based; settings: dose 12.5-50 µM, time 25.0 hrs
[12] = Toxicity in male Sprague-Dawley rat assessed as ulcer score at 100 mg/kg, po administrated for 3 days and measured after 2 hrs post last dose; assay type: organism-based; settings: in vivo, 74 h
Mus musculus [13] = assay: Anti-inflammatory activity against TPA-induced Kunming mouse ear edema model assessed as inhibition of PGE2 production in ear homogenate pre-administered topically via ear for 30 mins followed by TPA addition and measured after 6 hrs by ELISA; assay type: functional, organism-based; settings: dose 0.5-1 mg, route top, time 6.5 hrs
[14] = Toxicity in Sprague-Dawley rat assessed as ulcer index at 100 mg/kg, po administrated for 3 days and measured after 2 hrs post last dose; assay type: organism-based; settings: in vivo, 74 h
[15] = target: T2, Prostaglandin G/H synthase 1 (Ovis aries, UniProt P05979); assay: Inhibition of ovine COX-1 using arachidonic acid as substrate preincubated for 10 mins followed by substrate addition and measured after 2 mins by ELISA
T2 sequence (P05979 whole entry): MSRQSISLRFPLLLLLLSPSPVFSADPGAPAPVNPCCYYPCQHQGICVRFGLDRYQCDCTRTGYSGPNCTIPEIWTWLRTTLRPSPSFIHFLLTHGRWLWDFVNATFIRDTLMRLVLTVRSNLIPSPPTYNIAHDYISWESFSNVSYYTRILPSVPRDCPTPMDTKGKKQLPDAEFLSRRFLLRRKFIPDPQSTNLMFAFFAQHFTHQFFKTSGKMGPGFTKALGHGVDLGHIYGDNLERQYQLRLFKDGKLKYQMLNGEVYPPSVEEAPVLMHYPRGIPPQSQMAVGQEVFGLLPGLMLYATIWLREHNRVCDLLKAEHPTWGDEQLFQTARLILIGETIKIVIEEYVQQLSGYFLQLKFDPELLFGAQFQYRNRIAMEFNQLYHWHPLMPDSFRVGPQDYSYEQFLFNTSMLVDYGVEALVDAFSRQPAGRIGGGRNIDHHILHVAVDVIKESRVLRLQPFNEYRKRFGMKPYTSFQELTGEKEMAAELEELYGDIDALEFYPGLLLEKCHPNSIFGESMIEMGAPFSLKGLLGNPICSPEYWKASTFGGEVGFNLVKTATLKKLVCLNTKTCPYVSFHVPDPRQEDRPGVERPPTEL

Mus musculus [16] = assay: Anti-inflammatory activity in TPA-induced male Kunming mouse model of ear edema assessed as reduction in ear weight at 1.0 mg, TOP pre-administered via ear for 30 mins followed by TPA addition and measured after 6 hrs; assay type: functional, organism-based; settings: time 6.5 hrs
Mus musculus [17] = assay: Anti-inflammatory activity in TPA-induced male Kunming mouse model of ear edema assessed as reduction in ear erythema at 1.0 mg, TOP pre-administered via ear for 30 mins followed by TPA addition and measured after 6 hrs; assay type: functional, organism-based; settings: time 6.5 hrs
Mus musculus [18] = assay: Anti-inflammatory activity in TPA-induced male Kunming mouse model of ear edema assessed as reduction in ear thickness at 1.0 mg, TOP pre-administered via ear for 30 mins followed by TPA addition and measured after 6 hrs; assay type: functional, organism-based; settings: time 6.5 hrs
[19] = Toxicity in Sprague-Dawley rat assessed as average number of ulcers at 50 mg/kg, po administrated for 3 days and measured after 2 hrs; assay type: organism-based; settings: in vivo, 74 h
[20] = Toxicity in Sprague-Dawley rat assessed as ulcer index at 50 mg/kg, po administrated for 3 days and measured after 2 hrs; assay type: organism-based; settings: in vivo, 74 h
[21] = Toxicity in Sprague-Dawley rat assessed as ulcer score at 50 mg/kg, po administrated for 3 days and measured after 2 hrs; assay type: organism-based; settings: in vivo, 74 h

SMILES | IC50 at 24 h [1] | inhibition at 20 µM (RAW264.7 [2]) | other results
NS(=O)(=O)c1ccc(-c2nnc(SCC(=O)O)n2-c2ccccc2Br)cc1 | > 100 µM | 14% | 
Cc1cccc(-n2c(SCC(=O)O)nnc2-c2ccc(S(N)(=O)=O)cc2)c1 | 76.6 µM | 17.7% | 
NS(=O)(=O)c1ccc(-c2nnc(SCC(=O)O)n2-c2ccc(I)cc2)cc1 | > 100 µM | 30.8% | IC50 [3]: 0.054 µM; Activity (Mus musculus [4]): Dose-dependent-effect; Activity (Mus musculus [5]): Active; Activity (Mus musculus [6]): Active; Activity (RAW264.7 [7]): Dose-dependent-effect; Ratio IC50 [8]: 296; Activity [9]: 0.6; Activity (Mus musculus [10]): Dose-dependent-effect; Activity (RAW264.7 [11]): Active; Activity [12]: 0.6; Activity (Mus musculus [13]): Dose-dependent-effect; UI [14]: 5.2; IC50 [15]: 16 µM
NS(=O)(=O)c1ccc(-c2nnc(SCC(=O)O)n2-c2cccc([N+](=O)[O-])c2)cc1 | > 100 µM | 13.2% | 
NS(=O)(=O)c1ccc(-c2nnc(SCC(=O)O)n2-c2cccc(Br)c2)cc1 | > 100 µM | 14.1% | 
Cc1ccc(-c2cc(C(F)(F)F)nn2-c2ccc(S(N)(=O)=O)cc2)cc1 [CELECOXIB] |  | 38.1% | Activity (Mus musculus [16]): Active; Activity (Mus musculus [17]): Active; Activity (Mus musculus [18]): Active; Activity [9]: 0.8; Activity [12]: 1.5; UI [14]: 6.3
NS(=O)(=O)c1ccc(-c2nnc(SCC(=O)O)n2-c2ccccc2F)cc1 | > 100 µM | 13.6% | 
Cc1ccccc1-n1c(SCC(=O)O)nnc1-c1ccc(S(N)(=O)=O)cc1 | > 100 µM | 18.8% | 
COc1ccccc1-n1c(SCC(=O)O)nnc1-c1ccc(S(N)(=O)=O)cc1 | > 100 µM | 12.9% | 
NS(=O)(=O)c1ccc(-c2nnc(SCC(=O)O)n2-c2ccc(F)cc2)cc1 | > 100 µM | 15.4% | 
NS(=O)(=O)c1ccc(-c2nnc(SCC(=O)O)n2-c2cccc(F)c2)cc1 | > 100 µM | 15.1% | 
COc1ccc2c(c1)c(CC(=O)O)c(C)n2C(=O)c1ccc(Cl)cc1 [INDOMETHACIN] |  |  | Activity [19]: 3.18; UI [20]: 28.78; Activity [21]: 15.6
NS(=O)(=O)c1ccc(-c2nnc(SCC(=O)O)n2-c2ccc(C(F)(F)F)cc2)cc1 | 62.2 µM | 22.6% | 
NS(=O)(=O)c1ccc(-c2nnc(SCC(=O)O)n2-c2ccc(Br)cc2)cc1 | > 100 µM | 21% | 
NS(=O)(=O)c1ccc(-c2nnc(SCC(=O)O)n2-c2ccccc2[N+](=O)[O-])cc1 | > 100 µM | 13.8% | 
Cc1ccc(-n2c(SCC(=O)O)nnc2-c2ccc(S(N)(=O)=O)cc2)cc1 | 74.6 µM | 22.3% | 
NS(=O)(=O)c1ccc(-c2nnc(SCC(=O)O)n2-c2ccccc2I)cc1 | > 100 µM | 17.9% | 
NS(=O)(=O)c1ccc(-c2nnc(SCC(=O)O)n2-c2ccccc2C(F)(F)F)cc1 | > 100 µM | 20.7% | 
NS(=O)(=O)c1ccc(-c2nnc(SCC(=O)O)n2-c2ccccc2Cl)cc1 | > 100 µM | 20.9% | 
COc1ccc(-n2c(SCC(=O)O)nnc2-c2ccc(S(N)(=O)=O)cc2)cc1 | > 100 µM | 18.7% | 
NS(=O)(=O)c1ccc(-c2nnc(SCC(=O)O)n2-c2ccc(Cl)cc2)cc1 | > 100 µM | 22.4% | 
NS(=O)(=O)c1ccc(-c2nnc(SCC(=O)O)n2-c2ccc([N+](=O)[O-])cc2)cc1 | > 100 µM | 23.9% | 
NS(=O)(=O)c1ccc(-c2nnc(SCC(=O)O)n2-c2cccc(Cl)c2)cc1 | > 100 µM | 19.1% | 
COc1cccc(-n2c(SCC(=O)O)nnc2-c2ccc(S(N)(=O)=O)cc2)c1 | > 100 µM | 15.6% | 
NS(=O)(=O)c1ccc(-c2nnc(SCC(=O)O)n2-c2cccc(C(F)(F)F)c2)cc1 | > 100 µM | 21.1% | 
NS(=O)(=O)c1ccc(-c2nnc(SCC(=O)O)n2-c2cccc(I)c2)cc1 | > 100 µM | 22.5% | 
